In ChEMBL document CHEMBL1155278, “3,4-Diaryl-isoxazoles and -imidazoles as potent dual inhibitors of p38alpha mitogen activated protein kinase and casein kinase 1delta” (J Med Chem, 2009):

What was measured:
[1] = target: T1, Casein kinase I isoform delta (Rattus norvegicus, UniProt Q06486); experiment: Inhibition of GST-fused rat CK1delta by Cherenkov counting in presence of 20 uM ATP
[2] = target: T2, Casein kinase I isoform delta (Homo sapiens, UniProt P48730); experiment: Inhibition of recombinant CK1delta kinase domain by Cherenkov counting
Target sequence in this assay (P48730 whole entry, the tested form may be a part, canonical isoform): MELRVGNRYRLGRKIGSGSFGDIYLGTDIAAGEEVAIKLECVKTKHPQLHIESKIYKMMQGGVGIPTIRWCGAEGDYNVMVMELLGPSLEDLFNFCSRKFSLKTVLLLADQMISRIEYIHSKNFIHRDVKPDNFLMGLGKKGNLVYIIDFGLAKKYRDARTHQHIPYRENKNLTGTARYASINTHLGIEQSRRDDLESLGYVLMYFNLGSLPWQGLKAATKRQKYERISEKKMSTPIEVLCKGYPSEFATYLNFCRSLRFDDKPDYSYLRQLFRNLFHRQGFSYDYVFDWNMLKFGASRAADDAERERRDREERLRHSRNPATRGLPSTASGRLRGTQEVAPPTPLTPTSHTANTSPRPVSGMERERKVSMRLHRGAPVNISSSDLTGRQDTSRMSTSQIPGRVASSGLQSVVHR

[3] = Cell cycle arrest in human AC1-M88 cells assessed as accumulation at subG1 phase at 3.32 uM after 48 hrs by propidium iodide staining-based FACS analysis; type: functional
[4] = Cell cycle arrest in human AC1-M88 cells assessed as accumulation at G2 phase at 3.32 uM after 48 hrs by propidium iodide staining-based FACS analysis; type: functional
[5] = Cell cycle arrest in human AC1-M88 cells assessed as accumulation at G1 phase at 3.32 uM after 48 hrs by propidium iodide staining-based FACS analysis; type: functional
[6] = target: T3, Mitogen-activated protein kinase 14 (Homo sapiens, UniProt Q16539); experiment: Inhibition of p38alpha by Cherenkov counting
[7] = Cell cycle arrest in human AC1-M88 cells assessed as accumulation at S phase at 3.32 uM after 48 hrs by propidium iodide staining-based FACS analysis; type: functional
[8] = target: T2, Casein kinase I isoform delta; experiment: Inhibition of GST-fused human full length CK1delta expressed in Escherichia coli at 1 uM
Target sequence in this assay (P48730 whole entry, looked up, the tested form may be a part, canonical isoform): as the sequence (P48730 whole entry, the tested form may be a part, canonical isoform) above

[9] = target: T2, Casein kinase I isoform delta; experiment: Inhibition of human CK1delta
Target sequence in this assay (P48730 whole entry, the tested form may be a part, canonical isoform): as above

[10] = target: T1, Casein kinase I isoform delta
[11] = target: T3, Mitogen-activated protein kinase 14; conditions: 10 uM
[12] = target: Casein kinase I isoform delta (Oryctolagus cuniculus, UniProt P81123); experiment: Inhibition of rabbit skeletal muscle CK1delta by liquid scintillation counting
[13] = target: T2, Casein kinase I isoform delta; experiment: Inhibition of GST-fused human full length CK1delta expressed in Escherichia coli at 25 uM
Target sequence in this assay (P48730 whole entry, looked up, the tested form may be a part, canonical isoform): as the sequence (P48730 whole entry, the tested form may be a part, canonical isoform) above

T3 sequence (Q16539 whole entry): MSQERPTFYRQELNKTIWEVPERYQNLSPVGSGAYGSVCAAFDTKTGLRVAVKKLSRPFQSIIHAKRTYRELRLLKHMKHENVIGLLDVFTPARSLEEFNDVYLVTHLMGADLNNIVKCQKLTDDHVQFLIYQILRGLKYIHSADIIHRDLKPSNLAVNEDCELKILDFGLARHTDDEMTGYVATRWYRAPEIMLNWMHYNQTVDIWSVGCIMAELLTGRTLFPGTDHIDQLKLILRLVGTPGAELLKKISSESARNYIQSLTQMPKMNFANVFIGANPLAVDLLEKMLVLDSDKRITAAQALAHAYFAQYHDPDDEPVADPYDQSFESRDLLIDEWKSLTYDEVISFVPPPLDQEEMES
T1 sequence (Q06486 whole entry, the tested form may be a part, canonical isoform): as the sequence (P48730 whole entry, the tested form may be a part, canonical isoform) above, with I381V counted along it
Sequence of Casein kinase I isoform delta (Oryctolagus cuniculus, UniProt P81123) (P81123 whole entry, the tested form may be a part, canonical isoform): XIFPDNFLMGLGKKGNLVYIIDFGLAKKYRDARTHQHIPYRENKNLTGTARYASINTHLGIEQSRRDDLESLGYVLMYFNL

SMILES: COc1ccc(/C=C/C(=O)Nc2cc(-c3c(-c4ccc(F)cc4)noc3C(C)C)ccn2)c(OC)c1
- IC50 [1]: 0.047 µM
- IC50 [2]: 0.033 µM
- Activity [3]: 34.4%
- Activity [4]: 14.8%
- Activity [5]: 33%
- IC50 [6]: 2.52 µM
- Activity [7]: 14.8%

SMILES: CC(C)c1onc(-c2ccc(F)cc2)c1-c1ccnc(NC(=O)Cc2ccc(F)cc2)c1
- IC50 [1]: 0.09 µM
- IC50 [2]: 0.11 µM
- IC50 [6]: 1.56 µM

SMILES: CC(C)c1onc(-c2ccc(F)cc2)c1-c1ccnc(N[C@@H](C)c2ccccc2)c1
- IC50 [2]: 1.6 µM
- IC50 [6]: 0.006 µM

SMILES: C[S+]([O-])c1ccc(-c2nc(-c3ccc(F)cc3)c(-c3ccncc3)[nH]2)cc1 (centres undefined)
- inhibition [8]: 92%

SMILES: CC(Oc1ccccc1)C(=O)Nc1cc(-c2c(-c3ccc(F)cc3)noc2C(C)C)ccn1 (racemic)
- IC50 [1]: 0.34 µM
- IC50 [2]: 0.82 µM
- IC50 [6]: 0.89 µM

SMILES: COc1cc(OC)c(C=C2C(O)=Nc3ccccc32)c(OC)c1 [IC261]
- IC50 [9]: 1 µM

SMILES: CC(C)c1onc(-c2ccc(F)cc2)c1-c1ccnc(N[C@H](C)c2ccccc2)c1
- IC50 [6]: 0.45 µM

SMILES: Oc1ccc(-c2nc(-c3ccc(F)cc3)c(-c3ccncc3)[nH]2)cc1
- inhibition [8]: 79%

SMILES: CC(=O)Nc1cc(-c2c(-c3ccc(F)cc3)noc2C(C)C)ccn1
- IC50 [1]: 0.33 µM
- IC50 [2]: 0.7 µM
- IC50 [6]: 0.3 µM

SMILES: NC(=O)c1ccc(-c2nc(-c3ccc4c(c3)OCCO4)c(-c3ccccn3)[nH]2)cc1
- IC50 [10]: 0.3 µM
- inhibition [11]: 62%

SMILES: CC(C)c1onc(-c2ccc(F)cc2)c1-c1ccnc(NC2CCOCC2)c1
- IC50 [2]: 2.5 µM
- IC50 [6]: 0.06 µM

SMILES: NCCNS(=O)(=O)c1ccc(Cl)c2ccncc12
- IC50 [12]: 10 µM
- inhibition [13]: 88%

SMILES: CCC(C)Nc1cc(-c2c(-c3ccc(F)cc3)noc2C(C)C)ccn1 (centres undefined)
- IC50 [6]: 0.03 µM
